Values joined by “and” are separate entries in the source; they are usually repeats but may differ in a detail not shown here. Equal entries are not always repeated. Inconclusive results and toxic doses are left out. Rule for the calls: active = survival T/C of 150% or more; inactive = T/C below 125% in these data.
Test system: P388 leukemia ip, CD2F1 mice, survival T/C
Assay: NCI In Vivo Anticancer Drug Screen. Data for tumor model P388 Leukemia (intraperitoneal) in CD2F1 (CDF1) mice
Settings: endpoint: median survival time, higher = longer survival
Outline: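 Mice carrying the transplanted tumor received test compound or vehicle. Survival was recorded in each group, and the value is the treated-group measurement divided by that of the vehicle-treated control group.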

[1] = dose: 12.5 mg/kg/injection, schedule: Q01DX009 (ip), vehicle: saline with Tween-80
[2] = dose: 25.0 mg/kg/injection, schedule: Q01DX009 (ip), vehicle: saline with Tween-80
[3] = dose: 50.0 mg/kg/injection, schedule: Q01DX009 (ip), vehicle: saline with Tween-80
[4] = dose: 100.0 mg/kg/injection, schedule: Q01DX009 (ip), vehicle: saline with Tween-80
[5] = dose: 200.0 mg/kg/injection, schedule: Q01DX009 (ip), vehicle: saline with Tween-80
[6] = dose: 100.0 mg/kg/injection, schedule: Q01DX001 (ip), vehicle: Klucel (hydroxypropylcellulose) (HPC)
[7] = dose: 200.0 mg/kg/injection, schedule: Q01DX001 (ip), vehicle: Klucel (hydroxypropylcellulose) (HPC)
[8] = dose: 60.0 mg/kg/injection, schedule: Q01DX005 (ip), vehicle: saline with Tween-80
[9] = dose: 120.0 mg/kg/injection, schedule: Q01DX005 (ip), vehicle: saline with Tween-80
[10] = dose: 240.0 mg/kg/injection, schedule: Q01DX005 (ip), vehicle: saline with Tween-80
[11] = dose: 50.0 mg/kg/injection, schedule: Q01DX005 (ip), vehicle: Klucel (hydroxypropylcellulose) (HPC)
[12] = dose: 100.0 mg/kg/injection, schedule: Q01DX005 (ip), vehicle: Klucel (hydroxypropylcellulose) (HPC)
[13] = dose: 200.0 mg/kg/injection, schedule: Q01DX005 (ip), vehicle: Klucel (hydroxypropylcellulose) (HPC)
[14] = dose: 50.0 mg/kg/injection, schedule: Q01DX005 (ip), vehicle: saline
[15] = dose: 100.0 mg/kg/injection, schedule: Q01DX005 (ip), vehicle: saline
[16] = dose: 50.0 mg/kg/injection, schedule: Q01DX009 (ip), vehicle: Klucel (hydroxypropylcellulose) (HPC)
[17] = dose: 100.0 mg/kg/injection, schedule: Q01DX009 (ip), vehicle: Klucel (hydroxypropylcellulose) (HPC)
[18] = dose: 200.0 mg/kg/injection, schedule: Q01DX009 (ip), vehicle: Klucel (hydroxypropylcellulose) (HPC)

Measured: T/C

N#CSC1=C(SC#N)C1(F)F
inactive: dose: 12.5 mg/kg/injection, schedule: Q04DX002 (ip), vehicle: Klucel (hydroxypropylcellulose) (HPC) 100 % of control | dose: 25.0 mg/kg/injection, schedule: Q04DX002 (ip), vehicle: Klucel (hydroxypropylcellulose) (HPC) 100 % of control | dose: 50.0 mg/kg/injection, schedule: Q04DX002 (ip), vehicle: Klucel (hydroxypropylcellulose) (HPC) 104 % of control

COCCCN(Cc1cc(OC)c(OC)c(OC)c1)C(=S)Nc1cccc(SC)c1
inactive: dose: 50.0 mg/kg/injection, schedule: Q01DX009 (ip), vehicle: saline 101 % of control | dose: 100.0 mg/kg/injection, schedule: Q01DX009 (ip), vehicle: saline 100 % of control | dose: 200.0 mg/kg/injection, schedule: Q01DX009 (ip), vehicle: saline 99 % of control

CCOC(=O)C1CC(=O)C1C(=O)OCC (centres undefined)
inactive: [1] 104 % of control | [2] 103 % of control | [3] 100 % of control | [4] 100 % of control | [5] 101 % of control

O=C(c1ccncc1)c1cccc(Cl)c1
inactive: [3] 103 % of control | [4] 108 % of control | [5] 104 % of control

COc1ccc(CN2COc3c(ccc4cccnc34)C2)cc1
inactive: dose: 100.0 mg/kg/injection, schedule: Q04DX003 (ip), vehicle: Klucel (hydroxypropylcellulose) (HPC) 93 % of control | dose: 200.0 mg/kg/injection, schedule: Q04DX003 (ip), vehicle: Klucel (hydroxypropylcellulose) (HPC) 93 % of control | dose: 400.0 mg/kg/injection, schedule: Q04DX003 (ip), vehicle: Klucel (hydroxypropylcellulose) (HPC) 111 % of control

CC1N(C)c2cc3[nH]c(=O)cc(C(F)(F)F)c3cc2C1(C)C (centres undefined)
inactive: [6] 92 % of control and 96 % of control | [7] 103 % of control and 94 % of control | dose: 400.0 mg/kg/injection, schedule: Q01DX001 (ip), vehicle: Klucel (hydroxypropylcellulose) (HPC) 121 % of control

CCOc1cccc(C=N)c1O
inactive: [8] 111 % of control | [9] 105 % of control

CCOC(=O)Oc1ccc(CC([NH-])C(=O)O)cc1.CCOC(=O)Oc1ccc(CC([NH-])C(=O)O)cc1.[Cu+2] (centres undefined)
inactive: dose: 6.25 mg/kg/injection, schedule: Q01DX009 (ip), vehicle: saline 100 % of control | dose: 12.5 mg/kg/injection, schedule: Q01DX009 (ip), vehicle: saline 100 % of control | dose: 25.0 mg/kg/injection, schedule: Q01DX009 (ip), vehicle: saline 100 % of control

COc1ccc2c(c1OC)C(=O)N1CCc3cc4c(cc3C1C2C(=O)O)OCO4 (centres undefined)
inactive: dose: 50.0 mg/kg/injection, schedule: Q04DX003 (ip), vehicle: distilled water + Tween-80 100 % of control | dose: 100.0 mg/kg/injection, schedule: Q04DX003 (ip), vehicle: distilled water + Tween-80 109 % of control | dose: 200.0 mg/kg/injection, schedule: Q04DX003 (ip), vehicle: distilled water + Tween-80 100 % of control | dose: 400.0 mg/kg/injection, schedule: Q04DX003 (ip), vehicle: distilled water + Tween-80 104 % of control

CCOC(=O)NC(=O)CNc1ncc([N+](=O)[O-])s1
inactive: [6] 100 % of control | [7] 108 % of control

CCOc1c(-c2ccccc2)c(=O)n2c3ccccc3n(CC)c2c1C#N
inactive: dose: 7.5 mg/kg/injection, schedule: Q01DX005 (ip), vehicle: saline with Tween-80 86 % of control | dose: 15.0 mg/kg/injection, schedule: Q01DX005 (ip), vehicle: saline with Tween-80 87 % of control | dose: 30.0 mg/kg/injection, schedule: Q01DX005 (ip), vehicle: saline with Tween-80 93 % of control | [9] 88 % of control | [10] 98 % of control and 100 % of control

O=C(Oc1ccc2c(=O)cc(-c3ccccc3)oc2c1OC(=O)c1ccccc1)c1ccccc1
inactive: [8] 94 % of control | [9] 93 % of control | [10] 90 % of control

CC(=O)Oc1cccnc1C(C#N)C#N
inactive: dose: 12.5 mg/kg/injection, schedule: Q01DX005 (ip), vehicle: saline with Tween-80 108 % of control | dose: 25.0 mg/kg/injection, schedule: Q01DX005 (ip), vehicle: saline with Tween-80 94 % of control

CCCCN(CCCC)CC(O)c1cc(-c2ccc(C(F)(F)F)cc2)nc(-c2ccc(C(F)(F)F)cc2)c1 (centres undefined)
inactive: dose: 6.25 mg/kg/injection, schedule: Q01DX009 (ip), vehicle: saline with Tween-80 109 % of control | [1] 109 % of control | [2] 100 % of control

O=C(C1=CCCCC1)c1ccc(-c2ccccc2)cc1
inactive: [4] 100 % of control | [5] 100 % of control | dose: 400.0 mg/kg/injection, schedule: Q01DX009 (ip), vehicle: saline with Tween-80 100 % of control

O=C1c2cccc([N+](=O)[O-])c2C(=O)c2c1oc1ccc3ccccc3c21
inactive: [11] 104 % of control | [12] 102 % of control | [13] 96 % of control

Cc1csc(C)[n+]1C
inactive: dose: 25.0 mg/kg/injection, schedule: Q01DX009 (ip), vehicle: saline sonified 100 % of control | dose: 50.0 mg/kg/injection, schedule: Q01DX009 (ip), vehicle: saline sonified 100 % of control | dose: 100.0 mg/kg/injection, schedule: Q01DX009 (ip), vehicle: saline sonified 90 % of control

C/C=C/c1cc(OC)c2c(c1)[C@H](C)C(c1ccc(O)c(OC)c1)O2 (some centres undefined)
inactive: dose: 37.5 mg/kg/injection, schedule: Q01DX005 (ip), vehicle: Klucel (hydroxypropylcellulose) (HPC) 106 % of control | dose: 75.0 mg/kg/injection, schedule: Q01DX005 (ip), vehicle: Klucel (hydroxypropylcellulose) (HPC) 97 % of control | dose: 150.0 mg/kg/injection, schedule: Q01DX005 (ip), vehicle: Klucel (hydroxypropylcellulose) (HPC) 95 % of control

CC(C)(C)OC(=O)NC(CCCCN)C(=O)O (centres undefined)
inactive: [14] 103 % of control | [15] 100 % of control | dose: 200.0 mg/kg/injection, schedule: Q01DX005 (ip), vehicle: saline 100 % of control

CCN(C(=S)NCCCOC)c1ccc(C)cc1
inactive: [16] 97 % of control | [17] 86 % of control | [18] 87 % of control

COc1cc(CCc2cc(OC)c(OC)c(OC)c2)cc(OC)c1OC
inactive: dose: 31.25 mg/kg/injection, schedule: Q01DX009 (ip), vehicle: saline + Tween-80 + alcohol 98 % of control | dose: 62.5 mg/kg/injection, schedule: Q01DX009 (ip), vehicle: saline + Tween-80 + alcohol 91 % of control | dose: 125.0 mg/kg/injection, schedule: Q01DX009 (ip), vehicle: saline + Tween-80 + alcohol 102 % of control | dose: 250.0 mg/kg/injection, schedule: Q01DX009 (ip), vehicle: saline + Tween-80 + alcohol 87 % of control

Nn1nnc(-c2ccccc2)n1
inactive: [16] 96 % of control | [17] 96 % of control | [18] 97 % of control

Cn1nnnc1CC(=O)O
inactive: dose: 100.0 mg/kg/injection, schedule: Q04DX003 (ip), vehicle: saline 99 % of control | dose: 200.0 mg/kg/injection, schedule: Q04DX003 (ip), vehicle: saline 108 % of control | dose: 400.0 mg/kg/injection, schedule: Q04DX003 (ip), vehicle: saline 103 % of control

CCCCN=C(N)N/N=C(\C)c1ccc2c(c1)Cc1ccccc1-2
inactive: dose: 25.0 mg/kg/injection, schedule: Q04DX002 (ip), vehicle: saline with Tween-80 104 % of control

O=NN(C(=O)NC1CC1)C1CC1
inactive: dose: 25.0 mg/kg/injection, schedule: Q01DX001 (ip), vehicle: water 111 % of control | dose: 50.0 mg/kg/injection, schedule: Q01DX001 (ip), vehicle: water 102 % of control | dose: 100.0 mg/kg/injection, schedule: Q01DX001 (ip), vehicle: water 109 % of control

c1ccc2nc(N3CCCC3)c(N3CCCCCC3)nc2c1
inactive: [11] 100 % of control | [12] 100 % of control | [13] 107 % of control

COC(=O)CCSC(=O)Nc1cccc(C(F)(F)F)c1
inactive: [11] 97 % of control | [12] 98 % of control | [13] 104 % of control

O=C(O)c1cccc2c1C(=O)c1cccc3snc-2c13
inactive: [11] 101 % of control | [12] 99 % of control | [13] 109 % of control

CCC1OCN2CCCCC12 (centres undefined)
inactive: dose: 12.5 mg/kg/injection, schedule: Q01DX005 (ip), vehicle: saline 100 % of control and 105 % of control | dose: 25.0 mg/kg/injection, schedule: Q01DX005 (ip), vehicle: saline 107 % of control and 108 % of control | [14] 105 % of control and 107 % of control and 108 % of control | [15] 108 % of control and 110 % of control
